Measurements as given in patent publication US10760052B2, “Method of inhibiting tau phosphorylation” (priority 2012, dated 2020).
Where two headings read alike, the source gives them in different places.

Biological target: T1, mu opiate receptor (MOR) (Rattus norvegicus, UniProt P33535)
T1 construct: from tissue; host or cells: striatum (membrane preparation)
Assay type: biochemical
Conditions: for [35S]GTPγS binding, FLNA-Binding Compound as Agonist at 0.1 μM: 0.1 μM compound; for [35S]GTPγS binding, FLNA-Binding Compound as Agonist at 0.1 μM / [35S]GTPγS binding, FLNA-Binding Compound as Agonist at 1 μM: striatal membranes; for [35S]GTPγS binding, FLNA-Binding Compound as Agonist at 0.1 μM / [35S]GTPγS binding, FLNA-Binding Compound as Agonist at 1 μM + BFNA / [35S]GTPγS binding, FLNA-Binding Compound as Agonist at 1 μM: Series C-2; for [35S]GTPγS binding, FLNA-Binding Compound as Agonist at 1 μM + BFNA: 1 μM compound + 1 μM β-FNA (selective MOR antagonist); for [35S]GTPγS binding, FLNA-Binding Compound as Agonist at 1 μM: 1 μM compound

[1] = [35S]GTPγS binding to Gαo in striatal membranes, compound 0.1 μM
[2] = [35S]GTPγS binding to Gαo in striatal membranes, compound 1 μM
[3] = [35S]GTPγS binding to Gαo in striatal membranes, compound 1 μM plus 1 μM β-funaltrexamine (MOR antagonist)

T1 sequence (P33535 whole entry): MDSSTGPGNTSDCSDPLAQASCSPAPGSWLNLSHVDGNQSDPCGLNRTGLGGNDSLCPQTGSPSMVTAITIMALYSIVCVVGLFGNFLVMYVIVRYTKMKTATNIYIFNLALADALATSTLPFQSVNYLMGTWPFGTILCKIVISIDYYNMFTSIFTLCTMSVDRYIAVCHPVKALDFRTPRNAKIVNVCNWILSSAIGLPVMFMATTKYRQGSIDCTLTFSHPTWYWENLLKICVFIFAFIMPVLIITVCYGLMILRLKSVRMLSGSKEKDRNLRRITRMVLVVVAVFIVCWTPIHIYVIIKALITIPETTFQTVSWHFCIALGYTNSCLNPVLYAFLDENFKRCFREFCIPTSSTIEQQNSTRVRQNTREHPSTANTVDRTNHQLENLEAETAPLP

Compound | % DAMGO (0.1 μM) [%] | % DAMGO (1 μM) [%] | % DAMGO + BFNA [%] | [35S]GTPγS binding, FLNA-Binding Compound as Agonist at 0.1 μM [%] | [35S]GTPγS binding, FLNA-Binding Compound as Agonist at 1 μM + BFNA [%] | [35S]GTPγS binding, FLNA-Binding Compound as Agonist at 1 μM [%] | Concentration of FLNA-Binding Compound as Agonist 0.1 μM [1] [%] | Concentration of FLNA-Binding Compound as Agonist 1 μM [2] [%] | Concentration of FLNA-Binding Compound as Agonist 1 μM + BFNA [3] [%] | Concentration of FLNA-Binding Compound as Agonist 0.1 μM [%] | Concentration of FLNA-Binding Compound as Agonist 1 μM [%] | Concentration of FLNA-Binding Compound as Agonist 1 μM + BFNA [%]
O=[N+]([O-])c1ccc(S(=O)(=O)N2CCC3(CC2)NCCS3)cc1 [Compound C0044] | 102.8 | 128.0 | 356.0 | 173.7 | 59.1 | 280.1 | – | – | – | – | – | –
O=[N+]([O-])c1ccc(S(=O)(=O)N2CCC3(CC2)NCCCO3)cc1 [Compound C0045] | 88.3 | 109.1 | 634.3 | 149.2 | 105.3 | 238.8 | – | – | – | – | – | –
CC(=O)c1ccc(S(=O)(=O)N2CCOC23CCNCC3)cc1 [Compound C0046] | 197.4 | 211.5 | 356.4 | 286.2 | 156.8 | 492.9 | – | – | – | – | – | –
COc1ccc(S(=O)(=O)N2CCOC23CCN(S(=O)(=O)c2ccc(C(C)=O)cc2)CC3)cc1 [Compound C0047] | 98.1 | 88.5 | 182.0 | – | – | – | 142.2 | 206.1 | 80.1 | – | – | –
COc1ccc(S(=O)(=O)N2CCC3(CC2)OCCN3S(=O)(=O)c2ccc(C(C)=O)cc2)cc1 [Compound C0048] | 144.2 | 105.3 | 204.3 | – | – | – | – | – | – | 209.1 | 245.3 | 89.9
COc1ccc(S(=O)(=O)N2CCC3(CC2)OCCN3S(=O)(=O)c2ccc(OC)c(OC)c2)cc1OC [Compound C0049] | 73.5 | 90.1 | 184.1 | – | – | – | 106.6 | 210.0 | 81.0 | – | – | –
CC(=O)N1CCSC12CCN(S(=O)(=O)c1ccc([N+](=O)[O-])cc1)CC2 [Compound C0050] | 76.1 | 54.8 | 134.1 | 110.3 | 59.0 | 127.6 | – | – | – | – | – | –
CC(O)c1ccc(S(=O)(=O)N2CCC3(CC2)OCCN3S(=O)(=O)c2ccc(C(C)O)cc2)cc1 (stereo not drawn) [Compound C0051] | 65.1 | 73.1 | 127.0 | – | – | – | 94.4 | 170.4 | 55.9 | – | – | –
CC(=O)c1ccc(C(=O)N2CCC3(CC2)OCCN3S(=O)(=O)c2ccc(C(C)=O)cc2)cc1 [Compound C0052] | 74.8 | 69.9 | 97.0 | – | – | – | 108.4 | 162.8 | 42.7 | – | – | –
CC(=O)c1ccc(C(=O)N2CCOC23CCN(S(=O)(=O)c2ccc(C(C)=O)cc2)CC3)cc1 [Compound C0053] | 71.7 | 67.5 | 211.6 | – | – | – | 104.0 | 157.2 | 93.1 | – | – | –
CC(=O)c1ccc(C(=O)N2CCC3(CC2)OCCN3C(=O)c2ccc(C(C)=O)cc2)cc1 [Compound C0054] | 47.0 | 54.5 | 98.9 | – | – | – | 68.2 | 127.0 | 43.5 | – | – | –
CC(=O)c1ccc(S(=O)(=O)N2CCC3(CC2)OCCN3S(C)(=O)=O)cc1 [Compound C0056] | 68.0 | 83.0 | 196.1 | 98.6 | 86.3 | 193.4 | – | – | – | – | – | –
CC(=O)c1ccc(S(=O)(=O)N2CCC3(CC2)NCCS3)cc1 [Compound C0060] | 114.8 | 93.9 | 327.0 | 166.5 | 143.9 | 218.9 | – | – | – | – | – | –
COc1cc(S(=O)(=O)N2CCC3(CC2)OCCN3S(=O)(=O)c2cc(OC)c(OC)c(OC)c2)cc(OC)c1OC [Compound C0062] | 81.9 | 134.7 | 149.9 | – | – | – | 127.8 | 310.5 | 59.8 | – | – | –
CC(=O)c1ccc(S(=O)(=O)N2CCC3(CC2)NC(=O)CN3S(=O)(=O)c2ccc(C(C)=O)cc2)cc1 [Compound C0064] | 124.2 | 159.1 | 110.4 | – | – | – | 213.8 | 349.6 | 38.1 | – | – | –
CC(=O)c1ccc(S(=O)(=O)N2CCC3(CC2)OC(CN(C)C)CN3S(=O)(=O)c2ccc(C(C)=O)cc2)cc1 (stereo not drawn) [Compound C0065] | 127.0 | 121.3 | 119.5 | – | – | – | 198.3 | 279.5 | 47.7 | – | – | –
O=S(=O)(c1ccc(Cl)cc1)N1CCC2(CC1)OCCN2S(=O)(=O)c1ccc(Cl)cc1 [Compound C0067] | 82.9 | 81.5 | 97.1 | – | – | – | 142.7 | 179.0 | 33.5 | – | – | –
O=S(=O)(c1ccc(Br)cc1C(F)(F)F)N1CCC2(CC1)OCCN2S(=O)(=O)c1ccc(Br)cc1C(F)(F)F [Compound C0068] | 53.4 | 83.8 | 307.8 | – | – | – | 107.2 | 263.1 | 165.9 | – | – | –
O=S(=O)(c1ccc(Br)cc1Br)N1CCC2(CC1)OCCN2S(=O)(=O)c1ccc(Br)cc1Br [Compound C0070] | 96.2 | 95.9 | 331.0 | – | – | – | 165.6 | 210.8 | 114.2 | – | – | –
O=S(=O)(c1ccc(C(F)(F)F)cc1Br)N1CCC2(CC1)OCCN2S(=O)(=O)c1ccc(C(F)(F)F)cc1Br [Compound C0071] | 160.5 | 161.7 | 513.3 | – | – | – | 276.3 | 355.3 | 177.1 | – | – | –
O=S(=O)(c1ccc(F)c(F)c1)N1CCC2(CC1)OCCN2S(=O)(=O)c1ccc(F)c(F)c1 [Compound C0072] | 100.3 | 117.9 | 194.5 | – | – | – | 172.7 | 259.1 | 67.1 | – | – | –
O=S(=O)(c1ccc(Br)c(C(F)(F)F)c1)N1CCC2(CC1)OCCN2S(=O)(=O)c1ccc(Br)c(C(F)(F)F)c1 [Compound C0077] | 109.5 | 104.9 | 621.4 | – | – | – | 192.7 | 265.4 | 136.7 | – | – | –
O=S(=O)(c1ccc(Br)cc1F)N1CCC2(CC1)OCCN2S(=O)(=O)c1ccc(Br)cc1F [Compound C0078] | 82.4 | 106.4 | 359.4 | – | – | – | 138.1 | 236.6 | 170.7 | – | – | –
CC(=O)c1ccc(S(=O)(=O)N2CCC3(CC2)OCC(CCCCN(C)C)N3S(=O)(=O)c2ccc(C(C)=O)cc2)cc1 (stereo not drawn) [Compound C0080M] | 112.1 | 92.4 | 351.8 | – | – | – | 187.9 | 205.4 | 167.1 | – | – | –
CC(=O)c1ccc(S(=O)(=O)N2CCC3(CC2)NCC(=O)N3Cc2ccccc2)cc1 [Compound C0082M] | 113.7 | 107.8 | 181.1 | – | – | – | 228.1 | 338.4 | 97.6 | – | – | –
CC(=O)c1ccc(S(=O)(=O)N2CCC3(CC2)NC(=O)C(Cc2cnc[nH]2)N3S(=O)(=O)c2ccc(C(C)=O)cc2)cc1 (stereo not drawn) [Compound C0084M] | 97.3 | 114.9 | 280.4 | – | – | – | 163.1 | 255.5 | 133.2 | – | – | –
